The numbers were not newly measured in patent US20230390251A1, “METHODS OF TREATING RIBONUCLEOTIDE REDUCTASE-RELATED DISEASES WITH A RIBONUCLEOTIDE REDUCTASE INHIBITOR” (TAIHO PHARMACEUTICAL CO., LTD., priority 2020, published 2023), which cites them from elsewhere.

Series [1] addresses T1, Ribonucleotide reductase (RNR) (Homo sapiens, UniProt P23921+P31350).
T1 sequence (P23921 1-792): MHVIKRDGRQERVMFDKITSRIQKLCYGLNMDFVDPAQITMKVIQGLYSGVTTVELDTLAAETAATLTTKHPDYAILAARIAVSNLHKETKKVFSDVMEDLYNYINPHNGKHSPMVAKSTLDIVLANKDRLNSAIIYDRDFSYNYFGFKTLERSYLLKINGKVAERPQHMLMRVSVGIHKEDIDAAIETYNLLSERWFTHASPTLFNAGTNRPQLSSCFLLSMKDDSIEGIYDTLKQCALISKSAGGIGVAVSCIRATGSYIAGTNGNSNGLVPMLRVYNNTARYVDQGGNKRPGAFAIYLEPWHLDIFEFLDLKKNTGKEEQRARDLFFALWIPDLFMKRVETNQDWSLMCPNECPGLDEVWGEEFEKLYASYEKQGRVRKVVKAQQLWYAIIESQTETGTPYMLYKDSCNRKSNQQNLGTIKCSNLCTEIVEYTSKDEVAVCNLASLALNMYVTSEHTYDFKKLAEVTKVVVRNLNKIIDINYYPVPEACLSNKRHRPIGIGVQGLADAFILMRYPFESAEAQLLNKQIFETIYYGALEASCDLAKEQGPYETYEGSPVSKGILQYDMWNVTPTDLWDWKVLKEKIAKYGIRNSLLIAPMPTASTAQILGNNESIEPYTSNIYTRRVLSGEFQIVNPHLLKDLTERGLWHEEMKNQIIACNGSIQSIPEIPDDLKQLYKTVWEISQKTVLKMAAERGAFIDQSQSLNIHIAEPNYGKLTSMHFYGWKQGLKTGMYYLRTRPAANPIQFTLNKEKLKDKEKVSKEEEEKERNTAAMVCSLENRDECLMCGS
T1 sequence (P31350 1-389): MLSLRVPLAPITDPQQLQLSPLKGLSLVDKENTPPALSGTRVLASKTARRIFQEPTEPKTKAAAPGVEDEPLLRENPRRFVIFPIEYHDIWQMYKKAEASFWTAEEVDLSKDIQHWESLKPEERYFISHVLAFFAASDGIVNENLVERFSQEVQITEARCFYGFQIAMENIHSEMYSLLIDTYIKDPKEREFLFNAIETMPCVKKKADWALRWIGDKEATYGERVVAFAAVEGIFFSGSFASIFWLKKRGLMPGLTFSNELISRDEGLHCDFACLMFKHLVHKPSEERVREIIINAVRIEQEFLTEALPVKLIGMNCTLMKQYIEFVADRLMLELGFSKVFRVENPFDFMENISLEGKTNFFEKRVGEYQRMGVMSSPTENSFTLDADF
As to conditions: from the literature (NPL 7; PL 1); cited from earlier work.

For series [2] the following is noted: from the literature (NPL 10); off-target effect on Fe ion-containing proteins; cited from earlier work.

On to `NC(=O)NO` [HU, hydroxyurea, reference compound], for which the RNR inhibitory activity result in series [1] is listed as “weak”. Take `NC(=S)NN=Cc1ncccc1N` [Compound 3-AP, 3-aminopyridine-2-carboxaldehyde thiosemicarbazone]: the “side effects in clinical cases” value in series [2] is recorded as “side effects such as hypoxia, dyspnea, methemoglobinemia”.
